Values after ≈ are worked out from the molar mass of the structure shown. Active and inactive are the calls of the source. No cut-off for these calls is given here.
Key:
MCF7 = assay: In vitro cytotoxic activity against MCF-7 (human breast cancer) cell line.; type: functional; conditions: read-out: ED50 (the source's name)
CAKI-1 = assay: In vitro cytotoxic activity was determined against renal cancer (CAKI-1) cell line; type: functional; conditions: Homo sapiens, read-out: ED50 (the source's name)
1A9 = assay: In vitro cytotoxic activity was determined against ovarian cancer (1A9) cell line; type: functional; conditions: Homo sapiens, read-out: ED50 (the source's name)
KB [1] = assay: In vitro cytotoxic activity was determined against drug resistant tumor cell line KB-VIN (expressing P-glycoprotein); type: functional; conditions: Homo sapiens, read-out: ED50 (the source's name)
KB [2] = assay: In vitro cytotoxic activity was determined against epidermoid carcinoma of the nasopharynx (KB) cell line; type: functional; conditions: Homo sapiens, read-out: ED50 (the source's name)
U-87 MG [3] = assay: In vitro cytotoxic activity against U-87-MG (glioblastoma) cell line.; type: functional, U-87MG ATCC; conditions: Homo sapiens, read-out: ED50 (the source's name)
SK-MEL-2 = assay: In vitro cytotoxic activity was determined against melanoma cancer (SK-MEL-2) cell line; type: functional; conditions: Homo sapiens, read-out: ED50 (the source's name)
KB [4] = assay: In vitro cytotoxic activity was determined against drug resistant tumor cell line KB-CPT (pleotrophic mechanism including level of topoisomerase I); type: functional; conditions: Homo sapiens, read-out: ED50 (the source's name)
HEL = assay: In vitro cytotoxic activity was determined against embryonic lung fibroblast (HEL) cell line; type: functional; conditions: Homo sapiens, read-out: ED50 (the source's name)
KB [5] = assay: In vitro cytotoxic activity was determined against drug resistant tumor cell line KB-7d (pleotrophic resistance including MRP multidrug resistant protein); type: functional; conditions: Homo sapiens, read-out: ED50 (the source's name)
A549 = assay: In vitro cytotoxic activity was determined against lung carcinoma (A549) cell line; type: functional; conditions: Homo sapiens, read-out: ED50 (the source's name)
HCT-8 = assay: In vitro cytotoxic activity was determined against ileocecal carcinoma (HCT-8) cell line; type: functional; conditions: Homo sapiens, read-out: ED50 (the source's name)
HOS = assay: In vitro cytotoxic activity was determined against osteosarcoma ( HOS) cell line; type: functional; conditions: Homo sapiens, read-out: ED50 (the source's name)
SAOS-2 = assay: In vitro cytotoxic activity was determined against osteosarcoma (SaOS-2) cell line; type: functional; conditions: Homo sapiens, read-out: ED50 (the source's name)
U-87 MG [6] = assay: In vitro cytotoxic activity was determined against glioblastoma (U-87-MG) cell line; Not active; type: functional, cell-based; conditions: Homo sapiens; U-87MG ATCC

Row | Compound | EC50 (MCF7) [µg/mL] | EC50 (CAKI-1) [µg/mL] | EC50 (1A9) [µg/mL] | EC50 (KB [1]) [µg/mL] | EC50 (KB [2]) [µg/mL] | EC50 (U-87 MG [3]) [µg/mL] | EC50 (SK-MEL-2) [µg/mL] | EC50 (KB [4]) [µg/mL] | EC50 (HEL) [µg/mL] | EC50 (KB [5]) [µg/mL] | EC50 (A549) [µg/mL] | EC50 (HCT-8) [µg/mL] | EC50 (HOS) [µg/mL] | EC50 (SAOS-2) [µg/mL] | ED50 (U-87 MG [6])
1 | Cc1nccc2c1[nH]c1ccccc12 [HARMAN] | 19 (≈ 104 µM) | 8 (≈ 43.9 µM) | 6.1 (≈ 33.5 µM) | 17.5 (≈ 96 µM) | 8.9 (≈ 48.8 µM) | 19 (≈ 104 µM) | > 20 | 15 (≈ 82.3 µM) | 9.8 (≈ 53.8 µM) | 16.5 (≈ 90.5 µM) | 9.3 (≈ 51 µM) |  |  |  | 
2 | COc1ccc2c3ccnc(C)c3n(C)c2c1 | 4.3 (≈ 19 µM) | 5 (≈ 22.1 µM) | 1.8 (≈ 7.95 µM) |  | 2.2 (≈ 9.72 µM) | 7.8 (≈ 34.5 µM) |  |  |  |  | 4.2 (≈ 18.6 µM) | > 20 |  |  | 
3 | CCCCCCOc1ccc2c(c1)[nH]c1c(C)nccc12 | 3.1 (≈ 11 µM) | 2.2 (≈ 7.79 µM) | 1.9 (≈ 6.73 µM) |  | 2.4 (≈ 8.5 µM) | 4.2 (≈ 14.9 µM) | > 5 |  |  |  | 4.4 (≈ 15.6 µM) | 3.8 (≈ 13.5 µM) | 2.5 (≈ 8.85 µM) |  | 
4 | CCCCn1c2cc(OC)ccc2c2ccnc(C)c21 | 9.5 (≈ 35.4 µM) | 11 (≈ 41 µM) | 2.2 (≈ 8.2 µM) |  | 7.8 (≈ 29.1 µM) | 12.3 (≈ 45.8 µM) |  |  |  |  | 6 (≈ 22.4 µM) | > 20 |  |  | 
5 | Cc1nccc2c1[nH]c1cc(OC(=O)C34CCC(C)(C(=O)O3)C4(C)C)ccc12 (stereo not drawn) | 20 (≈ 52.9 µM) | > 20 | 19.5 (≈ 51.5 µM) |  | > 10 |  | > 20 |  |  |  | 17 (≈ 44.9 µM) |  |  | > 20 | 
6 | CCCCCCCCC1NC(C(=O)O)Cc2c1[nH]c1cc(OC)ccc21 (stereo not drawn) |  | > 20 | > 20 |  | > 20 |  |  |  |  |  | > 20 |  |  |  | 
7 | COc1ccc2c(c1)[nH]c1c(C)[n+](C)ccc12.[I-] | 6.2 | 8.9 | 7 |  | 7.2 | 6.2 | 8.4 |  |  |  | 0.9 |  |  | 8.2 | 
8 | Cc1cc(O)n2c(n1)nc1ccccc12 | > 10 | > 10 | > 10 |  | > 10 |  | > 10 |  |  |  | > 10 |  |  | > 10 | inactive
9 | COS(=O)(=O)O.Cc1nccc2c1[nH]c1ccccc12 |  | > 20 | > 20 |  | 10.5 |  |  |  | > 20 |  | > 20 |  |  |  | 
10 | CC(=O)Oc1ccc2c(c1)[nH]c1c(C)nccc12 | 7.5 (≈ 31.2 µM) | 10.2 (≈ 42.5 µM) | 4.5 (≈ 18.7 µM) |  | 19.5 (≈ 81.2 µM) |  | 5 (≈ 20.8 µM) |  |  |  | 4.3 (≈ 17.9 µM) |  |  | > 20 | 
11 | CCOc1ccc2c(c1)[nH]c1c(C)nccc12 | 5 (≈ 22.1 µM) | 9 (≈ 39.8 µM) | 8 (≈ 35.4 µM) |  | 10.2 (≈ 45.1 µM) |  | 9.5 (≈ 42 µM) |  |  |  | 5 (≈ 22.1 µM) |  |  | 20 (≈ 88.4 µM) | 
12 | COc1ccc2c3ccn(C)c(C)c-3nc2c1 | 5.6 (≈ 24.7 µM) | 7.8 (≈ 34.5 µM) | 7 (≈ 30.9 µM) |  | 6.4 (≈ 28.3 µM) | 9 (≈ 39.8 µM) | 10 (≈ 44.2 µM) |  |  |  | 2.7 (≈ 11.9 µM) |  |  | 9.6 (≈ 42.4 µM) | 
13 | CCC(CC)C1NC(C(=O)O)Cc2c1[nH]c1cc(OC)ccc21 (stereo not drawn) |  | > 20 | > 20 |  | 20 (≈ 63.2 µM) |  |  |  | > 20 |  | > 20 |  |  |  | 

From ChEMBL document CHEMBL1131893, “Antitumor agents 201. Cytotoxicity of harmine and beta-carboline analogs” (1999)
